In US20110070232A1, “Combination Therapy with an Antitumor Alkaloid” (Pharma Mar, S.A., priority 2008, published 2011):
Like-named read-outs stand apart in the source and are kept apart here.

Assays:
Format in all cases: in vivo, mice
SK-OV-3 tumors = details: for % Inhibition: PM00104 0.9 mg/kg/day, single agents and combination, r5-r14 = day 14,17,21,24,29,32,36,43,50,57
Excerpt: Female athymic nude mice (Harlan Sprague Dawley, Madison, Wis.) were utilized for all experiments. Animals were housed in ventilated rack caging with food and water ad libitum. The mice were acclimated for at least 5 days prior to tumor implantation with tumor fragments.
The tumor model used in these studies was SK-OV-3 cell line, which was obtained from the ATCC (Manassas, Va.).
SK-OV-3 fragments were removed from donor animals and tissue was debrided of membrane and any hemorrhagic and necrotic areas and 3-4 mm^3 fragments, from in vivo passage 2, were implanted SC on the right flank of each animal, using a 13G trochar. Bacterial culture was taken on cells used to implant the study.
Treatments were initiated on DPI 14.
(§1) Tumor size measurements were recorded twice weekly from the treatment initiation until the termination of the study.
(§2) Mean, standard deviation and standard error of the mean were determined for tumor volume for all animal groups at all assessments. Student's t test was performed on tumor volumes at each measurement day, including at the end of the study, to determine whether there were any statistically significant differences between combination treatment groups and single monotherapy treatment groups.

HepG2 tumors = test system: HepG2 tumors
Procedure: Female athymic nude mice (Harlan Sprague Dawley, Madison, Wis.) were utilized for all experiments. Animals were housed in ventilated rack caging with food and water ad libitum. The mice were acclimated for at least 5 days prior to tumor implantation with a tumor cell suspension.
The tumor model used in these studies was HepG2 cell line, which was obtained from the ATCC (Manassas, Va.).
HepG2 cells were grown in MEM supplemented with 10% FBS, 1.5 g/L sodium bicarbonate, 0.1 mM non-essential amino acids, 1.0 mM sodium pyruvate, and 2 mM L-glutamine. Each animal was implanted SC on the right flank, using a 13G trochar, with 5×10^6 HepG2 cells in a 0.2 mL suspension of 50% Matrigel and 50% serum free medium, without antibiotics. Bacterial cultures were performed on aliquots of the cells prepared for implantation.
Treatments were initiated on DPI 19.
as §1, §2

NCI-H460 tumors = details: G2 PM00104 0.9 mg/kg/day IV
Excerpt: (§3) Female athymic nude mice (Harlan Sprague Dawley, Madison, Wis.) were utilized for all experiments. Animals were housed in ventilated rack caging with food and water ad libitum. The mice were acclimated for at least 5 days prior to tumor implantation.
The tumor model used in this study was NCI-H460 cell line which is a human lung cell line obtained from the ATCC (Manassas, Va.). […] Cells from in vitro passage 16 were those implanted SC into study mice.
Treatments were initiated on DPI 8.
(§4) Tumor size measurements were recorded 2-3 times/week from the treatment initiation until the termination of the study.
as §2

CaLu-6 tumors = details: G2 PM00104 0.9 mg/kg/day IV
Excerpt: as §3
The tumor model used in this study was CaLu-6 cell line which is a human lung cell line obtained from the ATCC (Manassas, Va.). […] Cells from in vitro passage 10 were those implanted SC into study mice.
Treatments were initiated on DPI 9.
as §4, §2

[1] = PM00104 0.90 mg/kg/day IV and/or Bevacizumab 5 mg/kg/day IP
[2] = day 19, PM00104 0.60, sorafenib 60 mg/kg/day
[3] = day 19, PM00104 0.90, sorafenib 60 mg/kg/day
[4] = day 22, PM00104 0.60, sorafenib 60 mg/kg/day
[5] = day 22, PM00104 0.90, sorafenib 60 mg/kg/day
[6] = day 26, PM00104 0.60, sorafenib 60 mg/kg/day
[7] = day 26, PM00104 0.90, sorafenib 60 mg/kg/day
[8] = day 30, PM00104 0.60, sorafenib 60 mg/kg/day
[9] = day 30, PM00104 0.90, sorafenib 60 mg/kg/day
[10] = day 33, PM00104 0.60, sorafenib 60 mg/kg/day
[11] = day 33, PM00104 0.90, sorafenib 60 mg/kg/day

Compound: COc1c(C)cc2c(c1O)[C@@H]1[C@@H]3Cc4c(OC(C)=O)c(C)c5c(c4[C@H](CNC(=O)/C=C/c4cccc(C(F)(F)F)c4)N3[C@@H](O)[C@H](C2)N1C)OCO5 [PM00104]
- % T/C on day 14 (SK-OV-3 tumors; [1]): 100.9%
- % T/C on day 17 (SK-OV-3 tumors; [1]): 87.6%
- % T/C on day 21 (SK-OV-3 tumors; [1]): 79.4%
- % T/C on day 24 (SK-OV-3 tumors; [1]): 78.8%
- % T/C on day 29 (SK-OV-3 tumors; [1]): 73.5%
- % T/C on day 32 (SK-OV-3 tumors; [1]): 73.1%
- % T/C on day 36 (SK-OV-3 tumors; [1]): 72.7%
- % T/C on day 43 (SK-OV-3 tumors; [1]): 81.5%
- % T/C on day 50 (SK-OV-3 tumors; [1]): 93.8%
- % T/C on day 57 (SK-OV-3 tumors; [1]): 100.4%
- % Inhibition (SK-OV-3 tumors; bevacizumab 5 mg/kg/day): 27.3%
- % Inhibition (SK-OV-3 tumors; bevacizumab […]): 27.3%
- % Inhibition (HepG2 tumors; day 19, PM00104 0.60, sorafenib 30 mg/kg/day): 8.4%
- % Inhibition (HepG2 tumors; [2]): 8.4%
- % T/C (HepG2 tumors; [2]): 91.6%
- % Inhibition (HepG2 tumors; day 19, PM00104 0.90, sorafenib 30 mg/kg/day): 8.5%
- % Inhibition (HepG2 tumors; [3]): 8.5%
- % T/C (HepG2 tumors; [3]): 91.5%
- % Inhibition (HepG2 tumors; day 22, PM00104 0.60, sorafenib 30 mg/kg/day): 28.1%
- % Inhibition (HepG2 tumors; [4]): 28.1%
- % T/C (HepG2 tumors; [4]): 71.9%
- % Inhibition (HepG2 tumors; day 22, PM00104 0.90, sorafenib 30 mg/kg/day): 40.3%
- % Inhibition (HepG2 tumors; [5]): 40.3%
- % T/C (HepG2 tumors; [5]): 59.7%
- % Inhibition (HepG2 tumors; day 26, PM00104 0.60, sorafenib 30 mg/kg/day): 48.3%
- % Inhibition (HepG2 tumors; [6]): 48.3%
- % T/C (HepG2 tumors; [6]): 51.7%
- % Inhibition (HepG2 tumors; day 26, PM00104 0.90, sorafenib 30 mg/kg/day): 59.5%
- % Inhibition (HepG2 tumors; [7]): 59.5%
- % T/C (HepG2 tumors; [7]): 40.5%
- % Inhibition (HepG2 tumors; day 30, PM00104 0.60, sorafenib 30 mg/kg/day): 59.2%
- % Inhibition (HepG2 tumors; [8]): 59.2%
- % T/C (HepG2 tumors; [8]): 40.8%
- % Inhibition (HepG2 tumors; day 30, PM00104 0.90, sorafenib 30 mg/kg/day): 76.1%
- % Inhibition (HepG2 tumors; [9]): 76.1%
- % T/C (HepG2 tumors; [9]): 23.9%
- % Inhibition (HepG2 tumors; day 33, PM00104 0.60, sorafenib 30 mg/kg/day): 62.4%
- % Inhibition (HepG2 tumors; [10]): 62.4%
- % T/C (HepG2 tumors; [10]): 37.6%
- % Inhibition (HepG2 tumors; day 33, PM00104 0.90, sorafenib 30 mg/kg/day): 73.0%
- % Inhibition (HepG2 tumors; [11]): 73.0%
- % T/C (HepG2 tumors; [11]): 27.0%
- % T/C on day 8 (NCI-H460 tumors): 101.5%
- % T/C on day 10 (NCI-H460 tumors): 86.5%
- % T/C on day 13 (NCI-H460 tumors): 48.5%
- % T/C on day 16 (NCI-H460 tumors): 49.0%
- % T/C on day 20 (NCI-H460 tumors): 47.2%
- % T/C on day 23 (NCI-H460 tumors): 63.0%
- % T/C on day 28 (NCI-H460 tumors): 61.9%
- % T/C on day 31 (NCI-H460 tumors): 81.7%
- % Inhibition (NCI-H460 tumors; day 8): −1.5%
- % Inhibition (NCI-H460 tumors; day 10): 13.5%
- % Inhibition (NCI-H460 tumors; day 13): 51.5%
- % Inhibition (NCI-H460 tumors; day 16): 51.0%
- % Inhibition (NCI-H460 tumors; day 20): 52.8%
- % Inhibition (NCI-H460 tumors; day 23): 37.0%
- % Inhibition (NCI-H460 tumors; day 28): 38.1%
- % Inhibition (NCI-H460 tumors; day 31): 18.3%
- % T/C on day 9 (CaLu-6 tumors): 104.1%
- % T/C on day 13 (CaLu-6 tumors): 106.0%
- % T/C on day 16 (CaLu-6 tumors): 111.4%
- % T/C on day 20 (CaLu-6 tumors): 115.4%
- % T/C on day 27 (CaLu-6 tumors): 93.9%
- % T/C on day 30 (CaLu-6 tumors): 80.3%
- % T/C on day 34 (CaLu-6 tumors): 81.5%
- % T/C on day 42 (CaLu-6 tumors): 77.2%
- % Inhibition (CaLu-6 tumors; day 9): −4.1%
- % Inhibition (CaLu-6 tumors; day 13): −6.0%
- % Inhibition (CaLu-6 tumors; day 16): −11.4%
- % Inhibition (CaLu-6 tumors; day 20): −15.4%
- % Inhibition (CaLu-6 tumors; day 23): −16.8%
- % Inhibition (CaLu-6 tumors; day 27): 6.1%
- % Inhibition (CaLu-6 tumors; day 30): 19.7%
- % Inhibition (CaLu-6 tumors; day 34): 18.5%
- % Inhibition (CaLu-6 tumors; day 42): 22.8%
